Data from US10273290B2, “Hydrocarbon double-stapled stabilized HIV-1 GP41 heptad repeat domain peptides” (DANA-FARBER CANCER INSTITUTE, INC., priority 2009, dated 2019).
Bridge positions count the residues as written; N and C are the ends. Square brackets hold non-standard residues; d marks the D form. Ends that are not written are not given here. Peptide text beside a SMILES is read from it. * marks the point of attachment. FITC = O=C1OC2(c3ccc(O)cc3Oc3cc(O)ccc32)c2ccc(NC(=S)*)cc21; S5 = C=CCCC[C@](C)(N)C(=O)O; Nle = CCCC[C@H](N)C(=O)O

Tests used:
[1] = tested on: doubly-mutant HR1 peptides V38A/N42T and V38E/N42S; assay: Native PAGE complex assembly with mutant HR1 peptides; type: binding, HIV-1; conditions: for higher-order complex formation with doubly-mutant HR1 peptides: FITC-labeled peptides, native PAGE
Text: We first performed a native PAGE-based assay designed to monitor the capacity of FITC-HR2 and mutant HR1 peptides to interact to form a stable higher-order complex (He, Y., et al. PNAS (2008)).

Chymotrypsin, pH 7 = assay: Chymotrypsin, pH 7
Text: Table printed on a drawing sheet, FIG. 17D
Title: Chymotrypsin, pH 7
First reader's note: The table also serves as the legend of the plot below it (fraction intact over time); the plot symbols before the compound names are left out.

chymotrypsin = biological target: T1, chymotrypsin (Bos taurus, UniProt P00766); assay: Protease resistance assay, chymotrypsin (LC/MS); type: in vitro ADME; conditions: pH 7.4, 0.5 chymotrypsin, peptide 25 μM
T1 construct: purchased Sigma
Experimental: The DAD signal was set to 280 nm with an 8 nm bandwidth and MSD set to scan mode with one channel at (M+2H)/2, +1 mass units and the other at (M+3H)/3, +1 mass units. Integration of each MSD signal yielded areas under the curve of >10^8 counts. Reaction samples were composed of 5 μL peptide in DMSO (1 mM stock) and 195 μL of buffer consisting of 50 mM phosphate buffer pH 7.4 containing 2 mM CaCl2. Upon injection of the 0 hr time point sample, 2 μL of 50 ng/μL chymotrypsin (Sigma) was added and the amount of intact peptide quantitated by serial injection over time. An internal control of acetylated tryptophan carboxamide at a concentration of 100 μM was used to normalize each MSD data point. A plot of MSD area versus time yielded an exponential decay curve and half-lives were determined by nonlinear regression analysis using Prism software (GraphPad).

[2] = Circular dichroism, α-helical content; type: physicochemical
Experimental: The α-helicity of stapled modified polypeptides was compared to their unmodified counterparts by circular dichroism. CD spectra were obtained on an Aviv spectropolarimeter at 20° C. using the following standard measurement parameters: wavelength, 190-260 nm; step resolution, 0.5 nm; speed, 20 nm/sec; accumulations, 10; response, 1 sec; bandwidth, 1 nm; path length, 0.1 cm. The α-helical content of each peptide was calculated by dividing the mean residue ellipticity [θ]222obs, by the reported [θ]222obs for a model helical peptide (Forood, B., E. J. Feliciano, and K. P. Nambiar, PNAS, 1993. 90(3): p. 838-842; J. Martin Scholtz, Biopolymers, 1991. 31(13): p. 1463-1470; Lawless, M. K., et al., Biochemistry, 1996. 35(42): p. 13697-13708) or using, for example, the Aviv machine using CDNN software developed by Brohm in order to deduce five different secondary structure fractions (helix, parallel and antiparallel beta-sheet, beta-turn and random coil). Protein Engineering, 1992. 5(3); p. 191-195
In order to evaluate secondary structure improvements of hydrocarbon-stapled peptides, we record and analyze circular dichroism (CD) spectra on an Aviv Biomedical spectrometer (model 410), as described above. […] The CD spectra are initially plotted as wavelength versus millidegree. […] After conversion to mean residue ellipticity, percent α-helicity can be calculated using the equation, % helicity=100×[θ]222/^max[θ]222, where ^max[θ]222=−40,000×[1−(2.5/number of amino acid residues)]. We also employ the curve-fitting CDDN software that is bundled with our spectrometer to calculate the relative fractions of secondary structure including α-helix, parallel and antiparallel β-sheet, β-turn and random coil.

pepsin = assay: Protease resistance assay, pepsin at pH 2; conditions: pepsin at 0.5 ng/μL, peptide 25 μM, acidic conditions
Experimental: The DAD signal was set to 280 nm with an 8 nm bandwidth and MSD set to scan mode with one channel at (M+2H)/2, +1 mass units and the other at (M+3H)/3, +1 mass units. […] Reaction samples were composed of 5 μL peptide in DMSO (1 mM stock) and 195 μL of buffer consisting of 50 mM phosphate buffer pH 7.4 containing 2 mM CaCl2. Upon injection of the 0 hr time point sample, 2 μL of 50 ng/μL chymotrypsin (Sigma) was added and the amount of intact peptide quantitated by serial injection over time. An internal control of acetylated tryptophan carboxamide at a concentration of 100 μM was used to normalize each MSD data point. A plot of MSD area versus time yielded an exponential decay curve and half-lives were determined by nonlinear regression analysis using Prism software (GraphPad). The assay was also performed using trypsin and pepsin in their appropriate buffer conditions.

FITC-SAH-gp41(626-662)(A, F): FITC-labeled doubly stapled SAH-gp41(626-662)(A, F) ({FITC}-LTWAEWDAEINNYTSLIHSLIEESQNQAEKNAQELLE; not fully specified (bridges); also: doubly stapled, positions not given here)
higher-order complex formation with doubly-mutant HR1 peptides [1]: formed a higher-order complex | fold enhancement in binding activity ([1]; compared to FITC-T649v, densitometric analyses): up to 2 fold

Enfuvirtide
Half-Life (Chymotrypsin, pH 7): 0.2 h

FITC-T649v: FITC-labeled T649v ({FITC}-LTWLEWDREINNYTSLIHSLIEESQNQQEKNEQELLE) [reference compound]
higher-order complex formation with doubly-mutant HR1 peptides [1]: formed a higher-order complex

CCCC[C@H](NC(C)=O)C(=O)N[C@H](C(=O)N[C@@H](Cc1c[nH]c2ccccc12)C(=O)N[C@@H](CCCC)C(=O)N[C@@H](CCC(=O)O)C(=O)N[C@@H](Cc1c[nH]c2ccccc12)C(=O)N[C@@H](CC(=O)O)C(=O)N[C@@H](CCCNC(=N)N)C(=O)N[C@@H](CCC(=O)O)C(=O)N[C@H](C(=O)N[C@@]1(C)CCCC=CCCC[C@@](C)(C(=O)N[C@@H](CC(C)C)C(=O)N[C@H](C(=O)N[C@@H](Cc2c[nH]cn2)C(=O)N[C@@H](CO)C(=O)N[C@@H](CC(C)C)C(=O)N[C@H](C(=O)N[C@@H](CCC(=O)O)C(=O)N[C@@H](CCC(=O)O)C(=O)N[C@@H](CO)C(=O)N[C@@H](CCC(N)=O)C(=O)N[C@@H](CC(N)=O)C(=O)N[C@@H](CCC(N)=O)C(=O)N[C@@]2(C)CCCC=CCCC[C@@](C)(C(=O)N[C@@H](CCC(N)=O)C(=O)N[C@@H](CCC(=O)O)C(=O)N[C@@H](CC(C)C)C(=O)N[C@@H](CC(C)C)C(=O)N[C@@H](CCC(=O)O)C(N)=O)NC(=O)[C@H](CC(N)=O)NC(=O)[C@H](CCCCN)NC(=O)[C@H](CCC(=O)O)NC2=O)[C@@H](C)CC)[C@@H](C)CC)NC(=O)[C@H]([C@@H](C)O)NC(=O)[C@H](Cc2ccc(O)cc2)NC(=O)[C@H](CC(N)=O)NC1=O)[C@@H](C)CC)[C@@H](C)O [SAH-gp41(626-662)(C, F)] (Ac-[Nle]TW[Nle]EWDREI[S5]NYT[S5]LIHSLIEESQNQ[S5]EKN[S5]QELLE-NH2; staple 11-15, 28-32)
Half-Life (chymotrypsin): 8.23 h | % helicity at pH 2 [2]: 55% | % helicity at pH 7 [2]: 41%

enfuvirtide [listing 1 of 5 here]
% helicity at pH 2 [2]: 57% | % helicity at pH 7 [2]: 30%

enfuvirtide [listing 2 of 5 here]
% helicity at pH 2 [2]: 66% | % helicity at pH 7 [2]: 26%

enfuvirtide [listing 3 of 5 here]
Half-life (minutes), pepsin (pepsin): 920 min

FITC-labeled enfuvirtide: FITC-labeled enfuvirtide [reference compound]
higher-order complex formation with doubly-mutant HR1 peptides [1]: no interactions

unstapled counterpart: unstapled 20-mer truncation of T649v, residues 626-645 ([Nle]TW[Nle]EWDREINNYTSLIHSL) [reference compound]
α-helical content ([2]; comparative CD spectra, 20-mer residues 626-645): 20%

enfuvirtide [listing 4 of 5 here]
Half-Life (Chymotrypsin, pH 7): 1.67 h | % helicity at pH 2 [2]: 61% | % helicity at pH 7 [2]: 48% | Half-life (minutes), pepsin (pepsin): 227 min

enfuvirtide [listing 5 of 5 here]
Half-Life (Chymotrypsin, pH 7): 0.417 h | % helicity at pH 2 [2]: 79% | % helicity at pH 7 [2]: 23% | Half-life (minutes), pepsin (pepsin): 3 min

CCCC[C@H](NC(C)=O)C(=O)N[C@H](C(=O)N[C@@H](Cc1c[nH]c2ccccc12)C(=O)N[C@@H](CCCC)C(=O)N[C@@H](CCC(=O)O)C(=O)N[C@@H](Cc1c[nH]c2ccccc12)C(=O)N[C@@H](CC(=O)O)C(=O)N[C@@H](CCCNC(=N)N)C(=O)N[C@@H](CCC(=O)O)C(=O)N[C@H](C(=O)N[C@@H](CC(N)=O)C(=O)N[C@@H](CC(N)=O)C(=O)N[C@@H](Cc1ccc(O)cc1)C(=O)N[C@H](C(=O)N[C@@]1(C)CCCC=CCCC[C@@](C)(C(=O)N[C@@H](CC(C)C)C(=O)N[C@H](C(=O)N[C@@H](CCC(=O)O)C(=O)N[C@@H](CCC(=O)O)C(=O)N[C@@H](CO)C(=O)N[C@@H](CCC(N)=O)C(=O)N[C@@H](CC(N)=O)C(=O)N[C@@H](CCC(N)=O)C(=O)N[C@@]2(C)CCCC=CCCC[C@@](C)(C(=O)N[C@@H](CCC(N)=O)C(=O)N[C@@H](CCC(=O)O)C(=O)N[C@@H](CC(C)C)C(=O)N[C@@H](CC(C)C)C(=O)N[C@@H](CCC(=O)O)C(N)=O)NC(=O)[C@H](CC(N)=O)NC(=O)[C@H](CCCCN)NC(=O)[C@H](CCC(=O)O)NC2=O)[C@@H](C)CC)NC(=O)[C@H](Cc2c[nH]cn2)NC(=O)[C@H]([C@@H](C)CC)NC(=O)[C@H](CC(C)C)NC1=O)[C@@H](C)O)[C@@H](C)CC)[C@@H](C)O [SAH-gp41(626-662)(D, F)] (Ac-[Nle]TW[Nle]EWDREINNYT[S5]LIH[S5]LIEESQNQ[S5]EKN[S5]QELLE-NH2; staple 15-19, 28-32)
Half-Life (chymotrypsin): 3.02 h
